The text below walks through data of patent publication US20050136043A1, “TGFbeta signaling inhibitors” (Ludwig Institute for Cancer Research, priority 2003, published 2005).

The subject of experiment [1] is TGFβ1-dependent stimulation of ARE-luc in Mv1Lu cells. Kind of experiment: ARE-luc luciferase reporter assay (Smad2-responsive element) in Mv1Lu cells. The following applies: peptide 50 μM, TGFβ1 10 ng/ml, 18 hours. The format is cell-based. In general terms: Reporter assays use an easily measured gene product as a stand-in for the process of interest.
Experiment [2] relates to Mv1Lu cells. Kind of experiment: Growth inhibition assay, [3H]thymidine incorporation. The format is cell-based. The settings on record: peptide 50 μM, TGFβ1 0.1 ng/ml, 24 hours; for Reversion of the inhibitory action of TGFβ1 on DNA synthesis: FIG. 7. As for the experimental part: Growth inhibition assay: Growth inhibition assay with MV1Lu cells, using evaluation of [^3H]thymidine incorporation, was performed as described earlier. Briefly, cells were preincubated with peptides for 30 min, and then treated or not with TGFβ1 (0.1 ng/ml) for 24 h. During the last two hours of incubation, [^3H]thymidine was added. Radioactivity incorporated into DNA was measured in a scintillation counter. No cytotoxic effects of peptides were observed after 24 h incubation with cells, as evaluated by observation of cells in a microscope.
To explore whether the antp-Sm2A (SEQ ID NO:2) peptide can interfere with the TGFβ-dependent effects on cells, we performed an assay with Mv1Lu cells, which are widely used in studies of TGFβ effects and are potently growth-inhibited by TGFβ [29]. […] [^3H]thymidine was added to cells for last two hours of incubation, and radioactivity incorporated into DNA was measured.
(In general: Uptake of a labelled nucleoside into DNA is a usual measure of proliferation.)

“RQIKIWFQNRRMKWKKTQMGSPSVRCSSMS (listed as Homo sapiens) [antp-Sm2S, penetratin fused to the C-terminus of wild-type Smad2]”: the “Effect on TGFβ1-dependent stimulation of ARE-luc” value in experiment [1] is reported as “no effect”. Further, the “Reversion of the inhibitory action of TGFβ1 on DNA synthesis” value in experiment [2] is “reverted to a significant extent”.

For the sequence “RQIKIWFQNRRMKWKKTQMGSPSVRCSAMA (listed as Homo sapiens) [antp-Sm2A]”, in experiment [1], the “Inhibition of TGFβ1-dependent stimulation of ARE-luc” value is reported as “up to 31%”. Also, in experiment [2], the “Inhibition of [3H]thymidine incorporation in response to TGFβ1” value stood at 26% and the “Reversion of the inhibitory action of TGFβ1 on DNA synthesis” value is on record as “reverted to a significant extent”.
